System: mice, spared nerve injury (SNI) model
Experiment: SNI model, von Frey, single s.c. dose, female mice
Format: in vivo, mouse
Conditions: s.c. 2, 10, 50 μmol/kg (all tested doses), 1 hour after injection
Procedure: solution (0.05 mg/kg) injected s.c. 30 min before surgery (10 μL/g). For surgery, mice were anaesthetised with ketamine (100 mg/kg, i.p.) and xylazine (10 mg/kg, i.p.) (volume 10 µL/g) with 100 μL of 1% xylocaine solution infiltrated at the site of the incision. The distal trifurcation of the sciatic nerve was identified, and the tibial and common peroneal branches were ligated with polypropylene nonabsorbable 6-0 sutures (Ethicon) and 1 mm was cut out, leaving the sural branch intact. The wound was closed with sutures, and the animals were allowed to recover and returned to their cages. […]
Wounds were closed with surgical glue or medical clips and animals were monitored daily for signs of stress or discomfort, but in all cases recovered uneventfully. […]
Unless otherwise specified, von Frey occurred as described in the following. […] Mechanical paw withdrawal threshold (PWT) was determined by von Frey measurements of both hind paws. […]
Mice were placed in PVC plastic boxes (11.5 cm x 14 cm) on a wire mesh and allowed minimum 20 min habituation prior of experiment initiation. Each von Frey hair was applied five times with adequate resting periods between each application and number of withdrawals recorded. The withdrawal threshold was determined as the von Frey filament eliciting at least three positive trials out of the five applications in two consecutive filaments. […]

## CCCCCCCCCCCCCC(=O)N(CCOCCOCCC(=O)N[C@@H](Cc1c[nH]cn1)C(=O)N[C@@H](Cc1c[nH]c2ccccc12)C(=O)N[C@@H](CC(C)C)C(=O)N[C@@H](CCCCN)C(=O)N[C@H](C(=O)O)C(C)C)CCOCCOCCC(=O)N[C@@H](Cc1c[nH]cn1)C(=O)N[C@@H](Cc1c[nH]c2ccccc12)C(=O)N[C@@H](CC(C)C)C(=O)N[C@@H](CCCCN)C(=O)N[C@H](C(=O)O)C(C)C [mPD5, myristoyl-NPEG4-(HWLKV)2]
  effect on mechanical hypersensitivity (PWT): significantly reduced mechanical hypersensitivity

From publication PMC11530130, “Peripherally restricted PICK1 inhibitor mPD5 ameliorates pain behaviors in murine inflammatory and neuropathic pain models” (JCI Insight, 2024)
